Values of other authors as cited in patent publication US20030073608A1 (priority 2001, published 2003).

How the values were obtained:
[1] = system: ventral tegmental dopamine cells (A10); conditions: limbic-related A10 cells; Bymaster et al., Eur. J. Pharmacol. 1998
[2] = system: substantia nigra dopamine cells (A9); conditions: Bymaster et al., Eur. J. Pharmacol. 1998

CCCSc1nsnc1[C@H]1CN2CCC[C@H]1C2 [PTAC]
antagonism of electrophysiological responses in ventral tegmental dopamine cells (A10) [1]: antagonizes electrophysiological responses | antagonism of substantia nigra dopamine cells (A9) [2]: does not antagonize
